Results from ChEMBL document CHEMBL1201862, “PubChem BioAssay data set” (2004).
Calls of active or inactive are those of the source.

Tests used:
[1] = biological target: DNA dC->dU-editing enzyme APOBEC-3A (Homo sapiens, UniProt P31941); experiment: SAR analysis of small molecule inhibitors of APOBEC3A DNA Deaminase via a fluorescence-based single-stranded DNA deaminase assay.; format: functional; settings: read-out: IC50_Mean
[2] = biological target: DNA dC->dU-editing enzyme APOBEC-3G (Homo sapiens, UniProt Q9HC16); experiment: inhibition of APOBEC3G ssDNA deamination – biochemical, fluorescence, single-stranded DNA substrate, SAR follow-up (AID 602136); format: functional; settings: read-out: IC50_Mean
Sequence of DNA dC->dU-editing enzyme APOBEC-3G (Q9HC16 whole entry): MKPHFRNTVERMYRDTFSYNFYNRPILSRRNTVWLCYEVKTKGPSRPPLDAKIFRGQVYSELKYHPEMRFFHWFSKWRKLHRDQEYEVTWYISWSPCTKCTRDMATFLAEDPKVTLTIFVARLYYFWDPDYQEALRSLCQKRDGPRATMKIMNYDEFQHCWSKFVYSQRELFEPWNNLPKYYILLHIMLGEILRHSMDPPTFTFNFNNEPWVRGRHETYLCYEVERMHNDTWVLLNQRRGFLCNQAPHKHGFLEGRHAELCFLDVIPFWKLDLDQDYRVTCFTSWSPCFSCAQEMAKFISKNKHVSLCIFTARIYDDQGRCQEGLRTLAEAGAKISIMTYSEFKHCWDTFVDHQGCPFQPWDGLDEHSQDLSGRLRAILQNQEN

[3] = biological target: Mitochondrial peptide methionine sulfoxide reductase (Bos taurus, UniProt P54149); experiment: Absorbance-based biochemical high throughput dose response assay for activators of Methionine sulfoxide reductase A (MsrA).; format: functional
Sequence of Mitochondrial peptide methionine sulfoxide reductase (P54149 whole entry): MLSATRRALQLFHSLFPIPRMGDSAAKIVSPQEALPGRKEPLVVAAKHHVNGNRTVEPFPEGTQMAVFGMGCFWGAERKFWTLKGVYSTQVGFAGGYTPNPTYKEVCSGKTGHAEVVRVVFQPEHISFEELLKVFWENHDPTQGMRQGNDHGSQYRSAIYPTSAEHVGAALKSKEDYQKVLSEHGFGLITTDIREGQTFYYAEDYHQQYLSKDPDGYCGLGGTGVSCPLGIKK

[4] = viability loss in THP-1 monocytes – THP-1 cells, cytotoxicity control for Vif-APOBEC3G degradation inhibitor project, dose response (AID 1117359); format: functional; settings: THP-1
[5] = biological target: T1, Low molecular weight phosphotyrosine protein phosphatase (Homo sapiens, UniProt P24666); format: functional; settings: read-out: IC50_Mean
T1 sequence (P24666 whole entry): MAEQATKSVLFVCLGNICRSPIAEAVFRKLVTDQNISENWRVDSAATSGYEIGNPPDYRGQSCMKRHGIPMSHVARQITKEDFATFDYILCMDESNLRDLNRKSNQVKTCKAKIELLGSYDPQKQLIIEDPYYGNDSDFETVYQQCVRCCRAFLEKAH

[6] = biological target: T1, Low molecular weight phosphotyrosine protein phosphatase; format: functional; settings: read-out: IC50_Mean; remark: listed apart in the source
[7] = bead-based luminescence quenchers, dual-tagged ARNT – biochemical, AlphaScreen, cherry-pick, artefact control for ARNT-TACC3 interaction inhibitor project, dose response (AID 651705); format: functional;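 note: AlphaScreen bead proximity signal that flags compounds interfering with the detection technology; potency reflects signal decrease which marks the compound as an assay artifact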
[8] = inhibition of ARNT PAS-B/TACC3 complex formation – biochemical, AlphaScreen, cherry-picked samples, confirmation (AID 651703); format: functional, Homo sapiens;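 note: His-tagged ARNT PAS-B domain paired with GST-TACC3 E629A dimer coactivator fragment; potency of inhibitors that break up the complex and lower AlphaScreen signal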
[9] = biological target: T2, Heat shock factor protein 1 (Mus musculus, UniProt P38532); experiment: decrease of HSF1-responsive luciferase luminescence – cell-based, NIH3T3, dose retest, confirmation (AID 2382); format: functional;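 note: NIH3T3 fibroblasts with HSF1-driven luciferase reporter stressed by proteasome inhibitor MG132; luminescence from HSF1-driven luciferase expression after 8 hours of MG132 stress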
T2 sequence (P38532 whole entry): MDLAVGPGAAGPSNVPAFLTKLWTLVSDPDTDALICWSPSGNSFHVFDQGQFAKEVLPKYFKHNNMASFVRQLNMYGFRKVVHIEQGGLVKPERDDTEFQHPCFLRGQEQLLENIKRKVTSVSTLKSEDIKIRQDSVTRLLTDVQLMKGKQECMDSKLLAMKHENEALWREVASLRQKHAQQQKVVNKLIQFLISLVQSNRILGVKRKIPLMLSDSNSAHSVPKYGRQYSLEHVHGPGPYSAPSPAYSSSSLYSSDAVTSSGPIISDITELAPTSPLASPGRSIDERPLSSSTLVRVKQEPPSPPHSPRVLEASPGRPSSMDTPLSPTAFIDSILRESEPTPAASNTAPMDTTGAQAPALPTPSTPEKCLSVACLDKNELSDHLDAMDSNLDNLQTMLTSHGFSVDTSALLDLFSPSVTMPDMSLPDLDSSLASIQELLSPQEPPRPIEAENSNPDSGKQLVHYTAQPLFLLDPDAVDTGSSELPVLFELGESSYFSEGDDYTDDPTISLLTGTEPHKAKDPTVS

[10] = biological target: Ras and Rab interactor 1/Tyrosine-protein kinase ABL1 (Homo sapiens, UniProt P00519+Q13671); format: functional;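 note: biochemical TR-FRET dose-response test measuring inhibition of binding between Rin1 and Abl proteins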
Sequence of Ras and Rab interactor 1/Tyrosine-protein kinase ABL1 (P00519 whole entry): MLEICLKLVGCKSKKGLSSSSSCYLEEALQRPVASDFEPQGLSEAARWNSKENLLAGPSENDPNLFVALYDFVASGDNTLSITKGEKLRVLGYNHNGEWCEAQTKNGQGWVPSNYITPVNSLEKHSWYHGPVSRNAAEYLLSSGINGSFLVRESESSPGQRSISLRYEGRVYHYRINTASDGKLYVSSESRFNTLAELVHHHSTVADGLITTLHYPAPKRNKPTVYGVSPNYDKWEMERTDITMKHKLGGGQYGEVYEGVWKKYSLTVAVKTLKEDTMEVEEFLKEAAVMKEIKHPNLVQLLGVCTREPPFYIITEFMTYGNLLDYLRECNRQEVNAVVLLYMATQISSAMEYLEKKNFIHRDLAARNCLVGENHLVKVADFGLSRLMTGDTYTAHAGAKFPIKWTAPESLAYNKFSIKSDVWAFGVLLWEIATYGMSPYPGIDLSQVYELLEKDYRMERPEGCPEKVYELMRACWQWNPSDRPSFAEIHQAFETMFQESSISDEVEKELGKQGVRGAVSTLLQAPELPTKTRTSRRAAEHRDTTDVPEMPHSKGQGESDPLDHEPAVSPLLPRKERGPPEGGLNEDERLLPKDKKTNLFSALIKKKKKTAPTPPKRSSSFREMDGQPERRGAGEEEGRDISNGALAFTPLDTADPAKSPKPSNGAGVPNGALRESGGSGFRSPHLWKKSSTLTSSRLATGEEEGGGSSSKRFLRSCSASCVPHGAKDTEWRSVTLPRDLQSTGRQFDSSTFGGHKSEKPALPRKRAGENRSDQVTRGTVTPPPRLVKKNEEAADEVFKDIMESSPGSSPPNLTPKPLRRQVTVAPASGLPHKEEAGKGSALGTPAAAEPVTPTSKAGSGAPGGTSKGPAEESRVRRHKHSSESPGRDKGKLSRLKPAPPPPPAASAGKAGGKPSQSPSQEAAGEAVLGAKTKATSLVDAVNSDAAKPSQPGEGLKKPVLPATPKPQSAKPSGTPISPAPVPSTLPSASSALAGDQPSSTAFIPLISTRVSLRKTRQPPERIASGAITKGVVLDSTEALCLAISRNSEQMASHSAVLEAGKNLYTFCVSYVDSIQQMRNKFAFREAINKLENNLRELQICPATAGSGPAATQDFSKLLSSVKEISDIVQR
Sequence of Ras and Rab interactor 1/Tyrosine-protein kinase ABL1 (Q13671 whole entry): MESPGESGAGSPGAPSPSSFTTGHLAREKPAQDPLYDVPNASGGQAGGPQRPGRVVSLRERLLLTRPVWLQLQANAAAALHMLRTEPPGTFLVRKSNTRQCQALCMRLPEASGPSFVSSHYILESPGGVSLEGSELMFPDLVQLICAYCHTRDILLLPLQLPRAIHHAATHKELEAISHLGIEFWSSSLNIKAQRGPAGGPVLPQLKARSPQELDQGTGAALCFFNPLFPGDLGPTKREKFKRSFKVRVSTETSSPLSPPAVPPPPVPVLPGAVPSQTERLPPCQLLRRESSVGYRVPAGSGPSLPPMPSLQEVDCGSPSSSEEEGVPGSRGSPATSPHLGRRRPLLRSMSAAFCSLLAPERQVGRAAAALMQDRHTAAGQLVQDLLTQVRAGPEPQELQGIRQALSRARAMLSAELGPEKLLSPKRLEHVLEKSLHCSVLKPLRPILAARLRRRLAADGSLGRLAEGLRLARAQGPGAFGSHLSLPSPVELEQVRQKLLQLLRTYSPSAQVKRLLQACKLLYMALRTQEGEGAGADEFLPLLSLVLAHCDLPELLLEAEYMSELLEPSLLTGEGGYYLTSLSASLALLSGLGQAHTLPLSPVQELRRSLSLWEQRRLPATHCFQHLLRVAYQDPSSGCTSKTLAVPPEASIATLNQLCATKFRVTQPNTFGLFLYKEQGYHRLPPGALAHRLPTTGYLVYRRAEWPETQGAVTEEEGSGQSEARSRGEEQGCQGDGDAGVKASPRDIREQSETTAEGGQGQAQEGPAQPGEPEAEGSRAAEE

[11] = biological target: T3, Zinc finger protein mex-5 (Caenorhabditis elegans, UniProt Q9XUB2); experiment: potency of MEX-5 RNA-binding blockers – biochemical, C. elegans, fluorescence polarization, dose response (AID 1960)
T3 sequence (Q9XUB2 whole entry): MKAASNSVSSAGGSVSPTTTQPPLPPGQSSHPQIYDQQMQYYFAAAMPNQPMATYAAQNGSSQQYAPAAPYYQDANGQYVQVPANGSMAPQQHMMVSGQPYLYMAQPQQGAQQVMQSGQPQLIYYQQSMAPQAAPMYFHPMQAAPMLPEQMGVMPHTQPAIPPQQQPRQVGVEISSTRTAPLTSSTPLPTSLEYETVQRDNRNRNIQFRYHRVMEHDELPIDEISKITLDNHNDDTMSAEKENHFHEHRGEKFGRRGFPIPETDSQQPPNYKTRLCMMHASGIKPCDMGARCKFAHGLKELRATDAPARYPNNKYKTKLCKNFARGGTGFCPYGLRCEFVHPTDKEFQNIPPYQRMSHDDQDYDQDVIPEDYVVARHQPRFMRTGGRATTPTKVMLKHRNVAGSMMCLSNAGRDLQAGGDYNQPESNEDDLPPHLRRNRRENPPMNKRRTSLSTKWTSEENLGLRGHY

[12] = biological target: T4, RNA-binding protein pos-1 (Caenorhabditis elegans, UniProt G5EF15); experiment: disruptors of C. elegans POS-1 RNA interaction – biochemical, fluorescence polarization, dose response (AID 1964);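 note: purified POS-1 fused to maltose binding protein made in E. coli; potency of compounds blocking POS-1 binding to fluorescent RNA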
T4 sequence (G5EF15 whole entry): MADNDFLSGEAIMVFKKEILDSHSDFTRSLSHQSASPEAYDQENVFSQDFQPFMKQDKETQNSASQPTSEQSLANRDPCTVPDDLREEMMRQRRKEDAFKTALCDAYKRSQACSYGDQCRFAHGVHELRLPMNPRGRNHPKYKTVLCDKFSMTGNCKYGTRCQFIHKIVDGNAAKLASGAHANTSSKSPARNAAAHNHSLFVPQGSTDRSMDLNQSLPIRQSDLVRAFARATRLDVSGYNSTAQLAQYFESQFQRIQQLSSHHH

[13] = biological target: T5, Carboxy-terminal domain RNA polymerase II polypeptide A small phosphatase 1 (Homo sapiens, UniProt Q9GZU7); experiment: CTDSP1 inhibitors, concentration-response, biochemical, absorbance readout, ultra-high-throughput screen actives (AID 540297); format: functional
T5 sequence (Q9GZU7 whole entry): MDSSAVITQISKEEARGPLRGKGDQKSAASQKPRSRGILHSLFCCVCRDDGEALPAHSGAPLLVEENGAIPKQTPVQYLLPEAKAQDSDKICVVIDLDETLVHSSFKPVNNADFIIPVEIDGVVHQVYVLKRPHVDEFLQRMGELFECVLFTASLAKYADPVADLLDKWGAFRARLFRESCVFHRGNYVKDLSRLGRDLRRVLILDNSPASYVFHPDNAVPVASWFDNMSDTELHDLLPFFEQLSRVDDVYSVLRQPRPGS

[14] = biological target: T6, Small ubiquitin-related modifier 1 (Homo sapiens, UniProt P63165); experiment: SUMO1 protein-protein binding blockers, potency – biochemical, FRET, dose response (AID 624383); format: functional; settings: read-out: IC50_Mean
T6 sequence (P63165 whole entry): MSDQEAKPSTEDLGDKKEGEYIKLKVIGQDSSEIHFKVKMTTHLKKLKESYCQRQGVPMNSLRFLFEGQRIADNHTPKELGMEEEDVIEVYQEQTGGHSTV

[15] = biological target: T6, Small ubiquitin-related modifier 1; experiment: SUMO1 protein interaction blockers, potency – biochemical, fluorescence polarization, uHTS hits, dose response (AID 624382); format: functional; settings: read-out: IC50_Mean

Sequence of DNA dC->dU-editing enzyme APOBEC-3A (P31941 whole entry): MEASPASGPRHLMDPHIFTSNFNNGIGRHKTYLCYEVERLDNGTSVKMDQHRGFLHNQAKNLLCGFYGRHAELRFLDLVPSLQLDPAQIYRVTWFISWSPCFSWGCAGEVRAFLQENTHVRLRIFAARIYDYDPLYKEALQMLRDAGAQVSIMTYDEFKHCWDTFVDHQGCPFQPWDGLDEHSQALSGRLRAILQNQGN

O=C(CSc1nnc2scc(-c3ccccc3)n12)Nc1ccccc1F
IC50 [1]: > 99 µM (inactive) | IC50 [2]: > 99 µM (inactive)

CCCn1c(=O)c2ccccc2n2c(SCC(=O)NCc3ccccc3)nnc12
IC50 [1]: > 99 µM (inactive) | IC50 [2]: > 99 µM (inactive)

O=[N+]([O-])c1cc(Br)c(O)c(/C=N/c2ccc(N3CCOCC3)cc2)c1
EC50 [3]: > 104 µM (inactive) | CC50 [4]: > 40 µM (active)

CCOc1ccccc1Nc1nc(Cl)nc(Nc2ccccc2OCC)n1
IC50 [1]: > 99 µM (inactive) | IC50 [2]: > 99 µM (inactive)

COCCNc1nc(NCc2ccc(NC(C)=O)cc2)c2sccc2n1
IC50 [5]: 17.5 µM (active) | IC50 [6]: 15.4 µM (active)

O=C(CN(Cc1ccccc1Cl)S(=O)(=O)c1ccc(Cl)cc1)N/N=C/c1ccc(C(=O)O)cc1
AC50 [7]: 84 µM (active) | AC50 [8]: 78.3 µM (active) | EC50 [9]: > 195 µM (not active)

C[C@]12CC[C@H](O)C[C@@H]1CC(=O)[C@@H]1[C@@H]2CC[C@]2(C)C(=O)CC[C@@H]12
IC50 [10]: 33.8 µM (inactive)

C=CC1=C(C(=O)O)N2C(=O)[C@@H](NC(=O)/C(=N\O)c3csc(N)n3)[C@H]2SC1 (stereo in doubt)
EC50 [11]: 33.3 µM (active) | EC50 [12]: 49.8 µM (active) | IC50 [13]: 4.48 µM (active) | IC50 [14]: 6.25 µM (active) | IC50 [15]: > 66.6 µM (inactive) | IC50 [5]: 19.6 µM (active) | IC50 [6]: 21.5 µM (inactive)
